Measurements taken from patent publication US20170107579A1, “E1 ENZYME MUTANTS AND USES THEREOF” (Millennium Pharmaceuticals, Inc., priority 2011, published 2017).

Key:
[1] = target: T1, UBA3 variant with A171T mutation (NAE) (Homo sapiens, UniProt Q8TBC4, A171T); assay: NAE HTRF assay, IC50 at KM for ATP (120 μM); format: biochemical; conditions: for IC50: UBA3 A171T mutant, HTRF assay at KM for ATP, 120 μM; for A171T/WT: ratio of IC50 A171T mutant to IC50 wild type
T1 construct: His; made in house; host or cells: E. coli Rosetta (DE3), co-expression
Procedure: (§1) The enzyme reversibility assay was run in the FLAG-NEDD8-GST-UBC12 HTRF transthiolation assay described previously (Soucy et al., 2009, Brownell et al., 2010). Final concentrations of each enzyme after dilution were 10 pM WT NAEβ, 12.5 pM A171T NAEβ, 30 pM N209K NAEβ, and 33 pM E204K/G201V NAEβ.
(§2) IC50 measurements were performed in the HTRF assay described in Example 6. Assays for each enzyme were performed at their KM for ATP (20 μM for wild type, 120 μM for the A171T mutant).
(§3) An NAE enzymatic reaction totals 50 μL and contains 50 mM HEPES (pH 7.5), 0.05% BSA, 5 mM MgCl2, 20 μM ATP, 250 μM GSH, 0.01 μM UBC12-GST, 0.075 NEDD8-Flag and 0.28 nM recombinant human NAE enzyme. The enzymatic reaction mixture, with and without compound inhibitor, is incubated at 24° C. for 90 minutes in a 384-well plate before termination with 25 μL of Stop/Detection buffer (0.1M HEPES pH 7.5, 0.05% Tween20, 20 mM EDTA, 410 mM KF, 0.53 nM Europium-Cryptate labeled monoclonal anti-FLAG M2 antibody (CisBio International) and 8.125 μg/mL PHYCOLINK goat anti-GST allophycocyanin (XL-APC) antibody (Prozyme)). After incubation for 3 hours at 24° C., quantification of the FRET is performed on the Analyst™ HT 96.384 (Molecular Devices).

wild type UBA3 (NAE) = target: T2, wild type UBA3 (NAE) (Homo sapiens, UniProt Q8TBC4); assay: NAE HTRF assay, IC50 at KM for ATP (20 μM); format: biochemical; conditions: read-out: NAE WT IC50
T2 construct: His; made in house; host or cells: E. coli Rosetta (DE3), co-expression
Procedure: as §1, §2, §3

[2] = test system: HCT-116 WT, HCT-116.1 A171T and HCT-116.4 C324Y cells; assay: Drug efflux inhibitor co-incubation, ATPlite viability assay; format: cell-based; conditions: co-treatment with MLN4924, 96 hours
Procedure: Treatment of cells with efflux inhibitors. FIG. 8A. […] Co-incubation studies were performed with various inhibitors of drug efflux at their highest non toxic concentration.
Diypridamole (Sigma), MK571 (Tocris), GF918, K0143 (Tocris) and LY5979 were obtained from commercial sources indicated.

T2 sequence (Q8TBC4 whole entry): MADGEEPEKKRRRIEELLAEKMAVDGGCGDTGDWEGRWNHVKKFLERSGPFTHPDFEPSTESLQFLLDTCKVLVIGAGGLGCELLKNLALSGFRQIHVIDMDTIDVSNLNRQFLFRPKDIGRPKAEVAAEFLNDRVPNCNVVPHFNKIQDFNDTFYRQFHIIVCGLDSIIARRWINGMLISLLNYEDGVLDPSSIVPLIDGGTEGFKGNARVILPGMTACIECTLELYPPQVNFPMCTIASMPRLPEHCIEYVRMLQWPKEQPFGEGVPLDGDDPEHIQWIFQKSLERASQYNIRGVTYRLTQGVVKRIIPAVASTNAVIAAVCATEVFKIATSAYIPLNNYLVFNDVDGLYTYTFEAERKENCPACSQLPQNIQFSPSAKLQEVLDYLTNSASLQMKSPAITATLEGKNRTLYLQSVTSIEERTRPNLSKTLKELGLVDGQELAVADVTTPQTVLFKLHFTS
T2 sequence (Q13564 whole entry partner): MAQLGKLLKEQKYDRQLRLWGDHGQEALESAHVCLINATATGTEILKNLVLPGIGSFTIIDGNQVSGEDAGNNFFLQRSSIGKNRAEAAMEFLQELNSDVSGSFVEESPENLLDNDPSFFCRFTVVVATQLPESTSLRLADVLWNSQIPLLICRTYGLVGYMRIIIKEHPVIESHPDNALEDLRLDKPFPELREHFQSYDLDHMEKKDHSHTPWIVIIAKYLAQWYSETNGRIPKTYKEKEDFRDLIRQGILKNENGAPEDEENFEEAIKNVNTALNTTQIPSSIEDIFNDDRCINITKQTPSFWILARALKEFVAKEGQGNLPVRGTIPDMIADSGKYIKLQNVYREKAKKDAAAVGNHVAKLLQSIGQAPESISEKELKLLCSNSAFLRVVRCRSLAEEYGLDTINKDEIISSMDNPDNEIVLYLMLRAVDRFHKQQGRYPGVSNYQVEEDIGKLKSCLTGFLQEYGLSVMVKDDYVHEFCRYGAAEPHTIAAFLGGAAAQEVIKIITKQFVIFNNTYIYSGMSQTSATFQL
T2 sequence (Q15843 1-76 partner limits assumed): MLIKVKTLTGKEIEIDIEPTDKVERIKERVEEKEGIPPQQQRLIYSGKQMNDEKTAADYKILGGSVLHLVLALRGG
T1 sequence (Q8TBC4 whole entry A171T): as the sequence (Q8TBC4 whole entry) above, with A171T counted along it
T1 sequence (Q13564 whole entry partner): as the sequence (Q13564 whole entry partner) above
T1 sequence (Q15843 1-76 partner limits assumed): as the sequence (Q15843 1-76 partner limits assumed) above

## NS(=O)(=O)OCC1OC(n2cnc3c(NCc4ccccc4)ncnc32)C(O)C1O (centres unmarked) [Compound I-6]
[1]
  IC50: 0.084 µM
  A171T/WT: 115
Wild type UBA3 (NAE)
  IC50: 0.00073 µM

## CNc1ncnc2c1ccn2C1CC(O)C(COS(N)(=O)=O)C1 (centres unmarked) [Compound I-40]
[1]
  IC50: 0.63 µM
  A171T/WT: 9
Wild type UBA3 (NAE)
  IC50: 0.072 µM

## Cc1ncnc2c1ccn2[C@@H]1C[C@@H](COS(N)(=O)=O)[C@@H](O)C1 [Compound I-46]
[1]
  IC50: 0.25 µM
  A171T/WT: 7
Wild type UBA3 (NAE)
  IC50: 0.037 µM

## COc1ccc2c3c([nH]c2c1)[C@H](CC(C)C)N1C(=O)[C@H](CCC(=O)OC(C)(C)C)NC(=O)[C@@H]1C3 [Compound K0143]
[2]
  sensitization of cells to MLN4924 by Pgp, BCRP and MRP2 inhibitors: did not sensitize

## COc1cc2c(cc1OC)CN(CCc1ccc(NC(=O)c3cccc4c(=O)c5cccc(OC)c5[nH]c34)cc1)CC2 [GF120918]
[2]
  sensitization of cells to MLN4924 by Pgp, BCRP and MRP2 inhibitors: did not sensitize
